The IC50 is the concentration needed to halve the response being measured.

This experiment addresses Tyrosine-protein phosphatase non-receptor type 5 (Homo sapiens) (UniProt P54829). As to the kind of experiment: STEP phosphatase inhibitor potency, dose response, orthogonal assay for STEP inhibitor project, biochemical, colorimetric absorbance (AID 624207). The following applies: recombinant STEP, pNPP colorimetric absorbance.

SMILES strings stand for the structures. Calls of active or inactive are those of the source.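 How the source made its calls: active means compounds blocking the phosphatase with IC50 at or below a set limit; inactive means the rest.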

Tyrosine-protein phosphatase non-receptor type 5 (Homo sapiens), sequence (P54829 whole entry, looked up): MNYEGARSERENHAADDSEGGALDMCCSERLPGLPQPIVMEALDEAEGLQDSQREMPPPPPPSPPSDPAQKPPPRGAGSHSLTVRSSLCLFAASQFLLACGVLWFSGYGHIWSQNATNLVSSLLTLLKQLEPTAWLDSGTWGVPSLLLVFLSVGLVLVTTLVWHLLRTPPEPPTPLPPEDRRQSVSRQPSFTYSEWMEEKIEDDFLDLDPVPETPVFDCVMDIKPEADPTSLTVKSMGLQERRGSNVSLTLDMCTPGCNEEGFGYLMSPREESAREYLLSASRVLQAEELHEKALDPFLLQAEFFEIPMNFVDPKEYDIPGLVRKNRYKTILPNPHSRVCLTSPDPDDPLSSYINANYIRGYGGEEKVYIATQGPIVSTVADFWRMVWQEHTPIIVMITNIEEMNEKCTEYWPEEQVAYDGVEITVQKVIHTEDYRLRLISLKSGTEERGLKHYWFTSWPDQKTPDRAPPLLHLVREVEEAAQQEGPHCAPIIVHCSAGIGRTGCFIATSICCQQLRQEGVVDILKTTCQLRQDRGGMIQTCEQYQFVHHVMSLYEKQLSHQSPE

`S=C1NC2=C(CCCC2=C2SCCS2)C(c2ccccc2)N1` (centres undefined): the IC50 result was “inactive”. The value for `CC1=C(O)C(=O)C(C2=C(O)C(=O)C(C)=C(O)C2=O)=C(O)C1=O` was > 80 µM (inactive); that for `CCOc1cc(/C=N/N=C2/NC(=O)C(CC(=O)O)S2)ccc1OCc1ccc(Cl)cc1Cl` (centres undefined) was > 80 µM (inactive); that for `COc1ccc(/C=N/N=C2/NC(=O)C(CC(=O)O)S2)cc1OCc1ccc(Cl)cc1Cl` (centres undefined) was 13.6 µM. As for `O=C1C(=O)N(CCCO)C(c2ccc(Br)cc2)/C1=C(\O)c1ccc(Br)cc1` (centres undefined), the entry is “inactive”; as for `COc1ccc(OC)c(N2C(=O)[C@@H]3C(c4ccccc4Cl)=NO[C@@H]3C2=O)c1`, > 80 µM (inactive). `S=C1NC(C23CC4CC(CC(C4)C2)C3)=CC(c2ccc3c(c2)OCO3)N1` (centres undefined): the IC50 was > 80 µM (inactive).

For the compound `CSc1ccc(C=NNc2ccc(S(=O)(=O)Nc3ccccc3C(=O)O)cc2[N+](=O)[O-])cc1`, the IC50 is 4.99 µM.

Consider `O=C(NN=Cc1ccccc1O)c1cccc([N+](=O)[O-])c1`, for which the IC50 was 15.8 µM.

The record behind these values is PubChem BioAssay AID624207 (Sanford-Burnham Center for Chemical Genomics, 2012).
